These results are taken from ChEMBL document CHEMBL3217634, “Synthesis and trypanocidal action of new adamantane substituted imidazolines” (Medchemcomm, 2013).

Where only a bound is given, the exact number is not on record here.

The subject of series [1] is Trypanosoma brucei. The experiment in a line: Antitrypanosomal activity against Trypanosoma brucei Lister 427 after 2 days by Alamar Blue fluorescence assay. The series is classed as functional, organism-based. As to conditions: Lister 427, 48 h.
Series [2] relates to L6. The experiment in a line: Cytotoxicity against rat L6 cells after 6 days by Alamar Blue fluorescence assay. The note with it: L6, 144 h. The format is cell-based.
Series [3] is described as follows: Selectivity index, ratio of IC50 for rat L6 cells to IC50 for Trypanosoma brucei Lister 427. The format is toxicity, cell-based. As to conditions: L6 cells (versus Trypanosoma brucei Lister 427), read-out: Ratio IC50.

In series [1], `NC1=NCC(C23CC4CC(CC(C5CCCC5)(C4)C2)C3)N1` (stereo not drawn) came in with an IC50 of 2.17 µM and a 90% effect concentration (IC90) of 2.63 µM. The same compound gave an IC50 in series [2] of 17.2 µM. Also, the selectivity ratio in series [3] was 7.9.

On to `CN1C(N)=NCC1C12CC3CC(CC(C4CCCC4)(C3)C1)C2` (stereo not drawn), for which, in series [1], half-maximal inhibition (IC50) was put at 1.65 µM and it took 2.23 µM to reach the 90% level (IC90). This compound also displayed an IC50 in series [2] of 11.7 µM. Further, the selectivity ratio in series [3] is 7.1.

In series [1], `C1=NCC(C23CC4CC(CC(C5CCCCC5)(C4)C2)C3)N1` (stereo not drawn) yielded an IC50 of 2.89 µM and a concentration for an effect of 90% (IC90) of 4.2 µM. Also, in series [2], the midpoint of inhibition, the IC50, lay at 7.22 µM. Also, the selectivity ratio in series [3] was found to be 2.5.

For `NC12CC3CC(CC(C3)C1)C2` [AMANTADINE], in series [1], the 50% inhibitory concentration (IC50) is greater than 132 µM and the IC90 was greater than 132 µM.

Turning to `NC1=NCC(C23CC4CC(CC(C5CCCC5)(C4)C2)C3)N1C1CCCCC1` (stereo not drawn), the IC50 in series [1] was 0.65 µM; in series [2] it was 3.22 µM. This compound yielded a 90% effect concentration (IC90) in series [1] of 0.84 µM. For the same compound, the selectivity ratio in series [3] was 5.

Consider `NC1=NCC(C23CC4CC(CC(C5CCCCC5)(C4)C2)C3)N1` (stereo not drawn), for which, in series [1], the midpoint of inhibition, the IC50, lay at 1.86 µM and the 90% effect level (IC90) was put at 2.52 µM. For the same compound, the IC50 in series [2] came to 19 µM. Also, the selectivity ratio in series [3] came out at 10.2.

Regarding `C1=NCC(C23CC4CC(CC(c5ccccc5)(C4)C2)C3)N1` (stereo not drawn), in series [1], the midpoint of inhibition, the IC50, lay at 7.09 µM and it took 9.02 µM to reach the 90% level (IC90).

With `CC1=NCC(C23CC4CC(CC(C5CCCC5)(C4)C2)C3)N1C` (stereo not drawn), in series [1], the IC50 stood at 2.97 µM and it took 4.51 µM to reach the 90% level (IC90). Moreover, the IC50 in series [2] turned out to be 3.77 µM. The selectivity ratio in series [3] was 1.3.

Turning to `CC1=NCC(C23CC4CC(CC(c5ccccc5)(C4)C2)C3)N1C` (stereo not drawn), in series [1], half-maximal inhibition (IC50) required 7.16 µM and it took 10.3 µM to reach the 90% level (IC90).

Consider `CC1=NCC(C23CC4CC(CC(C5CCCC5)(C4)C2)C3)N1` (stereo not drawn), for which, in series [1], the half-inhibitory concentration (IC50) was determined as 2.16 µM and the IC90 was 2.77 µM. In series [2], this compound showed a 50% inhibitory concentration (IC50) of 3.56 µM. For the same compound, in series [3], the selectivity ratio was 1.6.

In series [1], `NC1=NCC(C23CC4CC(CC(c5ccccc5)(C4)C2)C3)N1` (stereo not drawn) had an IC50 of 7.39 µM and an IC90 of 11.8 µM.

On to `CN1C=NCC1C12CC3CC(CC(C4CCCC4)(C3)C1)C2` (stereo not drawn), for which the half-inhibitory concentration (IC50) in series [1] amounted to 1.5 µM; in series [2], 5.77 µM. The same compound yielded a concentration for an effect of 90% (IC90) in series [1] of 1.83 µM. The selectivity ratio in series [3] stood at 3.9.

As to `C1=NCC(C23CC4CC(CC(C5CCCC5)(C4)C2)C3)N1c1ccccc1` (stereo not drawn), in series [1], it took 16.4 µM to reach half-maximal inhibition (IC50) and it took 24.2 µM to reach the 90% level (IC90).

In series [1], `CC1=NCC(C23CC4CC(CC(c5ccccc5)(C4)C2)C3)N1` (stereo not drawn) came in with an IC50 of 4.88 µM and an IC90 of 8.11 µM.

As to `CN1C=NCC1C12CC3CC(CC(c4ccccc4)(C3)C1)C2` (stereo not drawn), in series [1], the IC50 stood at 7.91 µM and the 90% effect concentration (IC90) stood at 13.1 µM.

In series [1], `NC1=NCC(C23CC4CC(CC(C5CCCC5)(C4)C2)C3)N1c1ccccc1` (stereo not drawn) returned a concentration for half-maximal inhibition (IC50) of 11.1 µM and an IC90 of 15.5 µM.

Turning to `C1=NCC(C23CC4CC(CC(C5CCCC5)(C4)C2)C3)N1C1CCCCC1` (stereo not drawn), the IC50 in series [1] stood at 1.82 µM; in series [2], 3.46 µM. In addition, the 90% effect level in series [1] (IC90) was put at 2.41 µM. Further, in series [3], the selectivity ratio was determined as 1.9.

In series [1], `CC(N)C12CC3CC(CC(C3)C1)C2` (stereo not drawn) [RIMANTADINE] returned an IC90 of 14 µM.

Turning to `CN1C(N)=NCC1C12CC3CC(CC(C4CCCCC4)(C3)C1)C2` (stereo not drawn), in series [1], it took 1.72 µM to reach half-maximal inhibition (IC50) and the 90% effect level (IC90) was put at 2.35 µM. For the same compound, half-maximal inhibition in series [2] (IC50) was put at 7.39 µM. In addition, in series [3], the selectivity ratio stood at 4.3.

In series [1], `CN1C(N)=NCC1C12CC3CC(CC(c4ccccc4)(C3)C1)C2` (stereo not drawn) gave an IC50 of 4.53 µM and an IC90 of 5.58 µM.

For the compound `C1=NCC(C23CC4CC(CC(C5CCCC5)(C4)C2)C3)N1` (stereo not drawn), the IC50 in series [1] was 1.57 µM; in series [2], 3.7 µM. In series [1], this compound displayed a concentration for an effect of 90% (IC90) of 2.42 µM. Besides, in series [3], the selectivity ratio turned out to be 2.4.
